According to the supplement of paper PMC10307832:

Assays:
Test in all cases: relative viability (nuclei count vs DMSO), 5 days (fraction); higher = more cells survive
Bleomycin + Foretinib = compound: CC1=C(N=C(N=C1N)[C@H](CC(=O)N)NC[C@@H](C(=O)N)N)C(=O)N[C@@H]([C@H](C2=CN=CN2)OC3C(C(C(C(O3)CO)O)O)OC4C(C(C(C(O4)CO)O)OC(=O)N)O)C(=O)N[C@H](C)[C@H]([C@H](C)C(=O)N[C@@H]([C@@H](C)O)C(=O)NCCC5=NC(=CS5)C6=NC(=CS6)C(=O)NCCC[S+](C)C)O [Bleomycin] + COc1cc2c(Oc3ccc(NC(=O)C4(C(=O)Nc5ccc(F)cc5)CC4)cc3F)ccnc2cc1OCCCN1CCOCC1 [Foretinib] (partner 0.25 µM); settings: main component drawn
How it was run: (§1)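 For relative viability, nuclei counts in treated wells were divided by those in vehicle wells. Lung cancer cell lines had been pin-tool dosed in 1536-well plates the day after seeding and cultured for 5 days, then fixed and stained in one step (final 0.05% Triton X-100, 1% formaldehyde, 1 ug/ml Hoechst) and imaged at 4×. Doses were one drug alone or a fixed anchor-drug dose plus five library-drug doses (not always all listed) in √10 steps, and values are duplicate-plate medians.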

Etoposide + Pictilisib = compound: COc1cc([C@@H]2c3cc4c(cc3[C@@H](O[C@@H]3O[C@@H]5CO[C@@H](C)O[C@H]5[C@H](O)[C@H]3O)[C@H]3COC(=O)[C@H]23)OCO4)cc(OC)c1O [Etoposide] + CS(=O)(=O)N1CCN(Cc2cc3nc(-c4cccc5[nH]ncc45)nc(N4CCOCC4)c3s2)CC1 [Pictilisib] (partner 1 µM)
How it was run: as §1

Bleomycin + Linsitinib = compound: CC1=C(N=C(N=C1N)[C@H](CC(=O)N)NC[C@@H](C(=O)N)N)C(=O)N[C@@H]([C@H](C2=CN=CN2)OC3C(C(C(C(O3)CO)O)O)OC4C(C(C(C(O4)CO)O)OC(=O)N)O)C(=O)N[C@H](C)[C@H]([C@H](C)C(=O)N[C@@H]([C@@H](C)O)C(=O)NCCC5=NC(=CS5)C6=NC(=CS6)C(=O)NCCC[S+](C)C)O [Bleomycin] + C[C@]1(O)C[C@@H](c2nc(-c3ccc4ccc(-c5ccccc5)nc4c3)c3c(N)nccn32)C1 [Linsitinib] (partner 1 µM); settings: main component drawn
How it was run: as §1

Bleomycin + Crizotinib = compound: CC1=C(N=C(N=C1N)[C@H](CC(=O)N)NC[C@@H](C(=O)N)N)C(=O)N[C@@H]([C@H](C2=CN=CN2)OC3C(C(C(C(O3)CO)O)O)OC4C(C(C(C(O4)CO)O)OC(=O)N)O)C(=O)N[C@H](C)[C@H]([C@H](C)C(=O)N[C@@H]([C@@H](C)O)C(=O)NCCC5=NC(=CS5)C6=NC(=CS6)C(=O)NCCC[S+](C)C)O [Bleomycin] + C[C@@H](Oc1cc(-c2cnn(C3CCNCC3)c2)cnc1N)c1c(Cl)ccc(F)c1Cl [Crizotinib] (partner 1 µM); settings: main component drawn
How it was run: as §1

Cell Line | relative viability (Bleomycin + Foretinib; first compound 0.01 µM) | relative viability (Bleomycin + Foretinib; first compound 0.03162 µM) | relative viability (Bleomycin + Foretinib; first compound 0.1 µM) | relative viability (Bleomycin + Foretinib; first compound 0.3162 µM) | relative viability (Bleomycin + Foretinib; first compound 1 µM) | relative viability (Etoposide + Pictilisib; first compound 0.01 µM) | relative viability (Etoposide + Pictilisib; first compound 0.03162 µM) | relative viability (Etoposide + Pictilisib; first compound 0.1 µM) | relative viability (Etoposide + Pictilisib; first compound 0.3162 µM) | relative viability (Etoposide + Pictilisib; first compound 1 µM) | relative viability (Bleomycin + Linsitinib; first compound 0.01 µM) | relative viability (Bleomycin + Linsitinib; first compound 0.03162 µM) | relative viability (Bleomycin + Linsitinib; first compound 0.1 µM) | relative viability (Bleomycin + Linsitinib; first compound 0.3162 µM) | relative viability (Bleomycin + Linsitinib; first compound 1 µM) | relative viability (Bleomycin + Crizotinib; first compound 0.01 µM) | relative viability (Bleomycin + Crizotinib; first compound 0.03162 µM) | relative viability (Bleomycin + Crizotinib; first compound 0.1 µM) | relative viability (Bleomycin + Crizotinib; first compound 0.3162 µM) | relative viability (Bleomycin + Crizotinib; first compound 1 µM)
LC-2-ad | 0.754 | 0.729 | 0.483 | 0.264 | 0.281 | 0.448 | 0.595 | 0.318 | 0.237 | 0.16 | 0.725 | 0.691 | 0.352 | 0.178 | 0.118 | 0.428 | 0.404 | 0.326 | 0.226 | 0.275
CAL-12T | 0.993 | 0.706 | 0.579 | 0.199 | 0.174 | 0.508 | 0.438 | 0.323 | 0.391 | 0.258 | 0.623 | 0.49 | 0.258 | 0.156 | 0.176 | 0.356 | 0.405 | 0.25 | 0.15 | 0.192
SK-LU-1 | 0.704 | 0.874 | 0.815 | 0.461 | 0.365 | 0.603 | 0.597 | 0.308 | 0.277 | 0.174 | 0.821 | 0.921 | 0.929 | 0.471 | 0.39 | 0.816 | 1.11 | 0.797 | 0.446 | 0.428
NCI-H1650 | 0.718 | 0.393 | 0.254 | 0.188 | 0.181 | 0.506 | 0.572 | 0.378 | 0.196 | 0.139 | – | – | – | – | – | 0.397 | 0.311 | 0.258 | 0.16 | 0.172
BEN | 0.626 | 0.582 | 0.587 | 0.379 | 0.329 | 0.477 | 0.62 | – | 0.545 | 0.376 | 0.862 | 0.868 | 0.896 | 0.637 | 0.682 | 0.769 | 0.829 | 0.94 | 0.671 | 0.742
EMC-BAC-2 | 0.859 | 0.74 | 0.63 | 0.35 | 0.247 | 0.511 | 0.515 | 0.413 | 0.27 | 0.164 | 0.746 | 0.696 | 0.688 | 0.38 | 0.265 | 0.628 | 0.626 | 0.738 | 0.318 | 0.241
LU99A | 0.683 | 0.64 | 0.503 | 0.297 | 0.19 | 0.362 | 0.337 | 0.237 | 0.212 | 0.159 | 0.379 | 0.348 | 0.252 | 0.166 | 0.127 | 0.344 | 0.358 | 0.284 | 0.12 | 0.16
ABC-1 | 0.773 | 0.9 | 0.579 | 0.346 | 0.24 | 0.765 | 0.711 | 0.386 | 0.345 | 0.228 | 0.938 | 0.647 | 0.63 | 0.355 | 0.248 | 0.799 | 0.769 | 0.659 | 0.191 | 0.161
NCI-H2170 | 0.992 | 0.98 | 0.736 | 0.855 | 0.829 | 0.315 | 0.306 | – | 0.336 | 0.255 | – | – | – | – | – | 0.996 | 1.19 | 1.12 | 0.662 | 0.624
NCI-H1299 | 1.07 | 1.08 | 0.934 | 0.497 | 0.277 | 0.777 | 0.672 | 0.641 | 0.644 | 0.332 | 0.879 | 0.978 | 0.854 | 0.481 | 0.245 | 0.896 | 0.943 | 0.715 | 0.402 | 0.331
NCI-H2342 | 0.874 | 0.996 | 1.03 | 0.698 | 0.918 | – | – | – | – | – | – | – | – | – | – | – | – | – | – | –
NCI-H1792 | – | – | – | – | – | 0.261 | 0.261 | 0.129 | 0.216 | 0.147 | 0.515 | 0.484 | 0.281 | 0.202 | 0.189 | 0.886 | 0.971 | 0.675 | 0.312 | 0.258
ChaGo-K-1 | 0.831 | 0.75 | 0.754 | 0.507 | 0.444 | 0.815 | 0.616 | 0.387 | 0.265 | 0.199 | – | – | – | – | – | – | 0.999 | 0.754 | 0.385 | 0.333
HCC-44 | – | – | – | – | – | 0.529 | 0.601 | 0.531 | 0.589 | 0.275 | 0.462 | 0.283 | 0.26 | 0.176 | 0.178 | 0.484 | 0.256 | 0.223 | 0.152 | 0.138
NCI-H1793 | 0.717 | 0.724 | 0.734 | 0.269 | 0.218 | 0.321 | 0.433 | – | 0.313 | 0.243 | 0.943 | 0.762 | 0.719 | 0.276 | 0.249 | – | – | – | – | –
NCI-H1395 | 0.886 | 0.932 | 0.827 | 0.672 | 0.497 | 0.618 | 0.665 | 0.591 | 0.551 | 0.446 | 0.715 | 0.843 | 0.666 | 0.626 | 0.391 | – | – | – | – | –
SW 900 | 0.629 | 0.386 | 0.465 | 0.211 | 0.161 | – | – | – | – | – | – | – | – | – | – | – | – | – | – | –
